Source: patent US8513276B2, “Imidazo[1,2-a]pyridine compounds for use in treating cancer” (Astex Therapeutics Limited, priority 2006, dated 2013)
Where a name gives a salt, the structure may show the parent alone. Read-outs that look alike come from different tables or passages of the source.

Tests used:
[1] = target: T1, FGFR3 (Homo sapiens, UniProt P22607); test: FGFR3 in vitro kinase inhibitory activity assay (TRF); assay type: biochemical
T1 construct: Enzymes (from Upstate) were prepared at 2× final concentration in 1× kinase assay buffer; purchased Upstate
T1 sequence (P22607 23-806): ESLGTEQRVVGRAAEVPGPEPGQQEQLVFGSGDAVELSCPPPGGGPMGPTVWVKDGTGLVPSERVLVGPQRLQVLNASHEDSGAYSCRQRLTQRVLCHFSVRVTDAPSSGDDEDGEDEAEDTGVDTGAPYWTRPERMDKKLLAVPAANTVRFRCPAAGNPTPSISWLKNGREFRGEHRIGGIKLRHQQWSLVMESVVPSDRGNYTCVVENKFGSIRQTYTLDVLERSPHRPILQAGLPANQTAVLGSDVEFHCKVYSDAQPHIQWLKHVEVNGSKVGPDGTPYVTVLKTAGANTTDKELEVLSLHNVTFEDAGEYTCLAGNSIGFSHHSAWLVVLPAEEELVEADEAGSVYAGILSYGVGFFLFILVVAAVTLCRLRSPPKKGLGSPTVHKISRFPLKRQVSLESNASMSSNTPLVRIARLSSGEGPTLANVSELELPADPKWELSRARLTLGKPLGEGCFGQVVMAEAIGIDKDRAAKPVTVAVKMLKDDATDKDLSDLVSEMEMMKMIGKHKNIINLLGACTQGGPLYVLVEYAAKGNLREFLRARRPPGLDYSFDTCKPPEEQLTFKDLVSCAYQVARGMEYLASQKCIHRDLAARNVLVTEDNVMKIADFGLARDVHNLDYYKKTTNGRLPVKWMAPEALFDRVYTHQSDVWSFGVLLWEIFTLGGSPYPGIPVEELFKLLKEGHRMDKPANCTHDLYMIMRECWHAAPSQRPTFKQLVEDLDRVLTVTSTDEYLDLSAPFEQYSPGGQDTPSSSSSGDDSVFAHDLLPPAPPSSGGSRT
Protocol: Enzymes (from Upstate) were prepared at 2× final concentration in 1× kinase assay buffer (as described below). Enzymes were then incubated with test compounds, biotinylated Flt3 substrate (biotin—DNEYFYV) (Cell Signalling Technology Inc.) and ATP. The reaction was allowed to proceed for 3 hours (FGFR3) or 2.5 hrs (PDGFR-beta) at room temperature on a plate shaker at 900 rpm before being stopped with 20 μl of 35 mM EDTA, pH 8 (FGFR3) or 55 mM EDTA, pH 8 (PDGFR-beta). Twenty μl of 5× detection mix (50 mM HEPES pH 7.5, 0.1% BSA, 2 nM Eu-anti-pY (PY20) (PerkinElmer) 15 nM SA-XL665 (Cisbio) for FGFR3 and 50 mM HEPES, pH 7.5, 0.5 M KF, 0.1% BSA, 11.34 nM Eu-anti-pY (PT66) (PerkinEimer), 94 nM SA-XL665 (Cisbio) for PDGFR-beta) was then added to each well and the plate sealed and incubated at room temperature for one hour on a plate shaker at 900 rpm. The plate was then read on a Packard Fusion plate reader in TRF mode.
Kinase Assay buffers were:
A: 50 mM HEPES pH 7.5, 6 mM MnCl2, 1 mM DTT, 0.1% TritonX-100

[2] = test system: LP-1 cell line; test: Cell-based pERK ELISA in LP-1 multiple myeloma cells; details: Homo sapiens
Protocol: LP-1 or JIM-1 multiple myeloma cells were seeded in 96 well plates at 1×10^6 cells/ml in 200 μl per well in serum free media. HUVEC cells were seeded at 2.5×10^5 cells/ml and allowed to recover for 24 h prior to transfer to serum free media. Cells were incubated for 16 h at 37° C. prior to the addition of a test compound for 30 minutes. Test compounds were administered at a 0.1% final DMSO concentration. Following this 30 minute incubation a FGF-1/Heparin (FGF-1 at 100 ng/ml final and Heparin at 100 ug/ml) mixture or VEGF^165 ([…]) was added to each of the wells for a further 5 minutes. The media was removed and 50 ul ERK ELISA lysis buffer (R and D Systems DuoSet ELISA for pERK and Total ERK #DYC-1940E, DYC-1018E) added. ELISA plates and standards were prepared according to the standard DuoSet protocols and the relative amounts of pERK to total ERK in each sample calculated according to the standard curve.
In particular, compounds of the invention were tested against the LP-1 cell line (DSMZ no.: ACC 41) derived from human multiple myeloma.

[3] = given as a bound, read-out: IC50 in the FGFR3 assay
[4] = LP-1 cell line, given as a bound, read-out: IC50 in LP-1 pERK ELISA
[5] = in vitro kinase assay, 8 μM ATP, read-out: FGFR3 IC50
[6] = LP-1 cells, FGF-1/heparin stimulation, pERK relative to total ERK, read-out: LP-1 pERK ELISA

Row | Compound | IC50 [1, 3] [µM] | IC50 [2, 4] [µM] | IC50 [1, 5] [µM] | IC50 [2, 6] [µM]
1 | Fc1ccc(-c2ccn3c(-c4cccc(Nc5nnco5)c4)cnc3c2)cc1 [Example 29, {3-[7-(4-Fluoro-phenyl)-imidazo[1,2-a]pyridin-3-yl]phenyl}-[1,3,4]oxadiazol-2-yl-amine] | < 1 | – | 0.011 | –
2 | Cn1ccnc1Nc1cccc(-c2cnc3cc(-c4ccc(F)cc4)ccn23)c1 [Example 34, {3-[7-(4-Fluoro-phenyl)-imidazol[1,2-a]pyridin-3-yl]-phenyl}-(1-methyl-1H-imidazol-2-yl)-amine Hydrochloride] | < 1 | – | 0.48 | –
3 | Clc1ccn2c(-c3cccc(Nc4cnn[nH]4)c3)cnc2c1 [the product of Procedure G1, [3-(7-Chloro-imidazo[1,2-a]pyridin-3-yl)-phenyl]-(3H-[1,2,3]triazol-4-yl)-amine] | < 1 | – | – | –
4 | Fc1ccc(-c2ccn3c(-c4cccc(Nc5cnccn5)c4)cnc3c2)cc1 [Example 1, {3-[7-(4-Fluoro-phenyl)-imidazo[1,2-a]pyridin-3-yl]-phenyl}-pyrazin-2-yl-amine] | < 1 | – | – | –
5 | Fc1ccc(-c2cnc3c(-c4cc(Nc5nncs5)ccn4)cnn3c2)cc1 [Example 31, {2-[6-(4-Fluoro-phenyl)-pyrazolo[1,5-a]pyrimidin-3-yl]-pyridin-4-yl}-[1,3,4]thiadiazol-2-yl-amine] | < 1 | – | 0.35 | –
6 | Nc1ccc(-c2cnc3c(-c4cccc(Nc5nncs5)c4)cnn3c2)cn1 [Example 11, 5-{3-[3-([1,3,4]Thiadiazol-2-ylamino)-phenyl]-pyrazolo[1,5-a]pyrimidin-6-yl}-pyridin-2-ylamine hydrochloride salt] | < 1 | < 1 | 0.00603 | 0.04
7 | CC(=O)N1CCN(c2ccn3c(-c4cccc(Nc5nncs5)c4)cnc3c2)CC1 [Example 38, 1-(4-{3-[3-([1,3,4]Thiadiazol-2-ylamino)-phenyl]-imidazo[1,2-a]pyridin-7-yl}-piperazin-1-yl)-ethanone] | < 1 | – | – | –
8 | Fc1ccc(-c2cnc3c(-c4cncc(Nc5nncs5)c4)cnn3c2)cc1 [Example 25, {5-[6-(4-Fluoro-phenyl)-pyrazolo[1,5-a]pyrimidin-3-yl]-pyridin-3-yl}-[1,3,4]thiadiazol-2-yl-amine] | < 1 | < 1 | – | –
9 | Fc1ccc(-c2ccc3c(c2)ncn3-c2cccc(Nc3nncs3)c2)cc1 [Example 23, {3-[5-(4-Fluoro-phenyl)-benzoimidazol-1-yl]-phenyl}-[1,3,4]thiadiazol-2-yl-amine] | < 1 | – | – | –
10 | CCOC(=O)N1CCN(c2ccn3c(-c4cccc(Nc5nncs5)c4)cnc3c2)CC1 [Example 36, 4-{3-[3-([1,3,4]Thiadiazol-2-ylamino)-phenyl]-imidazo[1,2-a]pyridin-7-yl}-piperazine-1-carboxylic acid ethyl ester] | < 1 | – | – | –
11 | Nc1nc(Nc2cccc(-c3cnc4cc(-c5ccc(F)cc5)ccn34)c2)n[nH]1 [Example 27, N*3*-(3-[7-(4-Fluoro-phenyl)-imidazo[1,2-a]pyridin-3-yl]-phenyl}-1H-[1,2,4]triazole-3,5-diamine] | < 1 | – | 0.13 | –
12 | Clc1ccn2c(-c3cccc(NCc4ccccc4)c3)cnc2c1 [the product of Procedure F8, Benzyl-[3-(7-chloro-imidazo[1,2-a]pyridin-3-yl)-phenyl]-amine] | < 1 | – | – | –
13 | Cn1cc(-c2ccn3c(-c4cccc(NCc5ccccc5)c4)cnc3c2)cn1 [Example 42, Benzyl-{3-[7-(1-methyl-1H-pyrazol-4-yl)-imidazo[1,2-a]pyridin-3-yl]phenyl}-amine] | < 1 | – | – | –
14 | Fc1ccc(-c2ccn3c(-c4cccc(Nc5ccncc5)c4)cnc3c2)cc1 [Example 6, {3-[7-(4-Fluoro-phenyl)-imidazo[1,2-a]pyridin-3-yl]-phenyl}-pyridin-4-yl-amine formate salt] | < 1 | – | – | –
15 | CCS(=O)(=O)N1CCN(c2ccn3c(-c4cccc(Nc5nncs5)c4)cnc3c2)CC1 [Example 21, {3-[7-(4-Ethanesulfonyl-piperazin-1-yl)-imidazo[1,2-a]pyridin-3-yl]-phenyl}-[1,3,4]thiadiazol-2-yl-amine Hydrochloride] | < 1 | – | – | –

Next, values leading:

Row | IC50 [1, 3] [µM] | IC50 [2, 4] [µM] | IC50 [1, 5] [µM] | IC50 [2, 6] [µM] | Compound
16 | < 1 | < 1 | – | – | O=C1CN(Cc2cccc(-c3ccn4c(-c5cccc(Nc6nncs6)c5)cnc4c3)c2)CCN1 [Example 28, 4-(3-{3-[3-([1,3,4]Thiadiazol-2-ylamino)-phenyl]-imidazo[1,2-a]pyridin-7-yl}-benzyl)-piperazin-2-one Formate]
17 | < 1 | < 1 | 0.0022 | 0.069 | Fc1ccc(-c2ccn3c(-c4cccc(Nc5nncs5)c4)cnc3c2)cc1 [Example 7, {3-[7-(4-Fluoro-phenyl)-imidazo[1,2-a]pyridin-3-yl]-phenyl}-[1,3,4]thiadiazol-2-yl-amine]
18 | < 1 | – | 0.115 | – | Fc1ccc(-c2ccn3c(-c4cccc(Nc5ncns5)c4)cnc3c2)cc1 [Example 39, {3-[7-(4-Fluoro-phenyl)-imidazo[1,2-a]pyridin-3-yl]phenyl}-[1,2,4]thiadiazol-5-yl-amine]
19 | < 1 | < 1 | – | – | Nc1cccc(-c2ccn3c(-c4cccc(Nc5nncs5)c4)cnc3c2)c1 [Example 32, {3-[7-(3-Amino-phenyl)-imidazo[1,2-a]pyridin-3-yl]-phenyl}-[1,3,4]thiadiazol-2-yl-amine Hydrochloride]
20 | < 1 | – | – | – | O=C(c1cccc(-c2ccn3c(-c4cccc(Nc5nncs5)c4)cnc3c2)c1)N1CCOCC1 [Example 22, Morpholin-4-yl-(3-{3-[3-([1,3,4]thiadiazol-2-ylamino)-phenyl]-imidazo[1,2-a]pyridin-7-yl}-phenyl)-methanone Hydrochloride]
21 | < 1 | – | – | – | Cc1ccn2c(-c3cccc(Nc4nncs4)c3)cnc2c1 [Example 41, [3-(7-Methyl-imidazo[1,2-a]pyridin-3-yl)phenyl]-[1,3,4]thiadiazol-2-yl-amine Hydrochloride]
22 | < 1 | – | – | – | c1cc(Nc2nncs2)cc(-c2cnc3cc(N4CCOCC4)ccn23)c1 [Example 19, [3-(7-Morpholin-4-yl-imidazo[1,2-a]pyridin-3-yl)-phenyl]-[1,3,4]thiadiazol-2-yl-amine]
23 | < 1 | – | – | – | c1ccc(Nc2cccc(-c3cnc4cc(-c5cccc(CN6CCOCC6)c5)ccn34)c2)cc1 [Example 8, {3-[7-(3-Morpholin-4-ylmethyl-phenyl)-imidazo[1,2-a]pyridin-3-yl]-phenyl}-phenyl-amine]
24 | < 1 | – | – | – | OCc1cccc(-c2ccn3c(-c4cccc(Nc5nncs5)c4)cnc3c2)c1 [Example 35, (3-{3-[3-([1,3,4]Thiadiazol-2-ylamino)-phenyl]-imidazo[1,2-a]pyridin-7-yl}-phenyl)-methanol]
25 | < 1 | – | – | – | c1cc(Nc2nncs2)cc(-c2cnc3cc(-c4ccnc(OC5CCOCC5)c4)ccn23)c1 [Example 33]
26 | < 1 | – | – | – | CS(=O)(=O)NCc1cccc(-c2ccn3c(-c4cccc(Nc5nncs5)c4)cnc3c2)c1 [Example 40, N-(3-{3-[3-([1,3,4]Thiadiazol-2-ylamino)-phenyl]-imidazo[1,2-a]pyridin-7-yl}-benzyl)-methanesulfonamide]
27 | < 1 | – | 0.00255 | – | Nc1ccc(-c2ccn3c(-c4cccc(Nc5nncs5)c4)cnc3c2)cn1 [Example 37, 5-{3-[3-([1,3,4]Thiadiazol-2-ylamino)-phenyl]-imidazo[1,2-a]pyridin-7-yl}-pyridin-2-ylamine Hydrochloride]
